From ChEMBL document CHEMBL4196131 (J Med Chem, 2018)
pEC50, pIC50, pKi: −log10 of the molar value. The source made the active and inactive calls. No cut-off for these calls is given here.

How the values were obtained:
Estrogen receptor [1] = biological target: T1, Estrogen receptor (Homo sapiens, UniProt P03372); assay: Binding affinity to human ERalpha LBD after 2 hrs in absence of light by competitive fluorometric binding assay
T1 sequence (P03372 whole entry): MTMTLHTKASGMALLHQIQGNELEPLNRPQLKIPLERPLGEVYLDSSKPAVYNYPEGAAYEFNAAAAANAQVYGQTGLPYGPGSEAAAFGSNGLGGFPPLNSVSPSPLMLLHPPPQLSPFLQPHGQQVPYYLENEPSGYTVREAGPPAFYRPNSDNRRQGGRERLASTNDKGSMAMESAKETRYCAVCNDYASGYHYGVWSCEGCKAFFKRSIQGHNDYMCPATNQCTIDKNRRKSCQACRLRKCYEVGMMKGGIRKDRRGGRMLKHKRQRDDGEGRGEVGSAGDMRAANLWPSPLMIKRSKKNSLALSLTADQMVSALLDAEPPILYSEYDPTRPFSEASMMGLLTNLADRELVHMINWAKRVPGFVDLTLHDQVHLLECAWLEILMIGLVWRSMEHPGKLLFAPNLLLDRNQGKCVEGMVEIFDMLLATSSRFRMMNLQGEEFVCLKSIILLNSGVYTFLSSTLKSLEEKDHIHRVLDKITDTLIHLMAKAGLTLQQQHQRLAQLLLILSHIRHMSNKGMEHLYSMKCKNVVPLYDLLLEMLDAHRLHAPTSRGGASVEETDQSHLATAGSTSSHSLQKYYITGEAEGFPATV

Estrogen receptor beta [2] = biological target: T2, Estrogen receptor beta (Homo sapiens, UniProt Q92731); assay: Binding affinity to human ERbeta LBD after 2 hrs in absence of light by competitive fluorometric binding assay
T2 sequence (Q92731 whole entry, the tested form may be a part): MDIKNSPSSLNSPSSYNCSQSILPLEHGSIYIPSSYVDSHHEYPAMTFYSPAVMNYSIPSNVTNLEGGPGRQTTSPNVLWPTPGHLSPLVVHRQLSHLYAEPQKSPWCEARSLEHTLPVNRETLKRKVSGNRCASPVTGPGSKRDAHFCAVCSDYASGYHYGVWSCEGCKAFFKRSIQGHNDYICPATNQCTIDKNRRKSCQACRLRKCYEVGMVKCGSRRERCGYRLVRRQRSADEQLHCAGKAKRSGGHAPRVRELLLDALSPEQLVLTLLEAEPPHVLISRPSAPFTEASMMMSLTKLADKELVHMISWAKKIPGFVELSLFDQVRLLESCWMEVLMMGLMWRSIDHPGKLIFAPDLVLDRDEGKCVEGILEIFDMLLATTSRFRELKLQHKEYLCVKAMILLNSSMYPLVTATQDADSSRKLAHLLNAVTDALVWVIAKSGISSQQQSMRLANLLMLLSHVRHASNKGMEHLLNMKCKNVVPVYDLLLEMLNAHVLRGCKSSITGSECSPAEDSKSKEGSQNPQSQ

[3] = biological target: T3, Estrogen receptor (Homo sapiens) (UniProt P03372); assay: Agonist activity at human ERalpha expressed in HEK293T cells after 24 hrs by ERE-based dual luciferase reporter gene assay relative to E2; format: cell-based
T3 sequence (whole entry): T1 sequence (P03372 whole entry)

Estrogen receptor beta [4] = biological target: T2, Estrogen receptor beta; assay: Agonist activity at human ERbeta expressed in HEK293T cells after 24 hrs by ERE-based dual luciferase reporter gene assay; format: cell-based
Estrogen receptor beta [5] = biological target: T2, Estrogen receptor beta; assay: Agonist activity at human ERbeta expressed in HEK293T cells after 24 hrs by ERE-based dual luciferase reporter gene assay relative to E2; format: cell-based
Estrogen receptor [6] = biological target: T1, Estrogen receptor; assay: Antagonist activity at human ERalpha expressed in HEK293T cells after 24 hrs by ERE-based dual luciferase reporter gene assay; format: cell-based
[7] = biological target: T3, Estrogen receptor (Homo sapiens); assay: Antagonist activity at human ERalpha expressed in HEK293T cells after 24 hrs by ERE-based dual luciferase reporter gene assay relative to E2; format: cell-based
Estrogen receptor beta [8] = biological target: T2, Estrogen receptor beta; assay: Antagonist activity at human ERbeta expressed in HEK293T cells after 24 hrs by ERE-based dual luciferase reporter gene assay; format: cell-based
Estrogen receptor beta [9] = biological target: T2, Estrogen receptor beta; assay: Antagonist activity at human ERbeta expressed in HEK293T cells after 24 hrs by ERE-based dual luciferase reporter gene assay relative to E2; format: cell-based; set-up: concentration or dose not given beside the values
[10] = Inhibition of NFkappaB in mouse RAW 264.7 cells assessed as reduction in LPS induced NO production after 24 hrs by Griess assay; format: cell-based; details: RAW264.7, 24 h
Mus musculus [11] = species: Mus musculus; assay: Inhibition of NFkappaB in mouse RAW 264.7 cells assessed as reduction in LPS induced NO production at 10 uM after 24 hrs by Griess assay relative to control; format: cell-based
MCF7 [12] = assay: Antitumor activity against human MCF7 cells xenografted in nude Balb/c mouse assessed as reduction in tumor burden at 17.5 mg/kg, po administered once every 2 days via gavage measured every 3 days; format: functional, organism-based
MCF7 [13] = assay: Antitumor activity against human MCF7 cells xenografted in nude Balb/c mouse assessed as reduction in tumor burden at 25 mg/kg, po administered once every 2 days via gavage measured on day 12; format: functional; set-up: scale not given: the % may be the effect or the level left
MCF7 [14] = assay: Antitumor activity against human MCF7 cells xenografted in nude Balb/c mouse assessed as tumor growth inhibition at 25 mg/kg, po administered once every 2 days via gavage measured on day 27; format: functional; details: read-out: TGI
Mus musculus [15] = assay: Toxicity in nude Balb/c mouse xenografted with human MCF7 cells assessed as reduction in body weight at 17.5 to 25 mg/kg, po administered once every 2 days via gavage measured every 3 days; format: organism-based; details: in vivo
Mus musculus [16] = assay: Antiinflammatory activity in Balb/c mouse xenografted with human MCF7 cells assessed as inhibition of NFkappaB expression in tissues around the tumor at 17.5 to 25 mg/kg, po administered once every 2 days via gavage measured after 2 weeks post dose; format: functional, organism-based
Mus musculus [17] = assay: Antiinflammatory activity in Balb/c mouse xenografted with human MCF7 cells assessed as inhibition of IL6 expression in tissues around the tumor at 17.5 to 25 mg/kg, po administered once every 2 days via gavage measured after 2 weeks post dose; format: functional, organism-based
Mus musculus [18] = assay: Antiinflammatory activity in Balb/c mouse xenografted with human MCF7 cells assessed as inhibition of TNFalpha expression in tissues around the tumor at 17.5 to 25 mg/kg, po administered once every 2 days via gavage measured after 2 weeks post dose; format: functional, organism-based
MCF7 [19] = assay: cells; details: Homo sapiens, MCF7, 72 h
MCF7 [20] = assay: Antiproliferative activity against human MCF7 cells at 5 to 20 uM after 48 hrs in presence of JSH-23 by MTT assay
[21] = Inhibition of NFkappaB in mouse RAW 264.7 cells assessed as reduction in LPS induced NO production after 24 hrs in presence of resveratrol by Griess assay relative to control; format: cell-based; details: RAW264.7, 24 h
Mus musculus [22] = species: Mus musculus; assay: Inhibition of NFkappaB in mouse RAW 264.7 cells assessed as reduction in LPS induced NO production at 10 uM after 24 hrs in presence of resveratrol by Griess assay relative to control; format: cell-based
MCF7 [23] = assay: Antiproliferative activity against human MCF7 cells after 72 hrs in presence of resveratrol by MTT assay; format: functional, cell-based; details: MCF7, 72 h
[24] = Inhibition of NFkappaB in mouse RAW 264.7 cells assessed as reduction in LPS induced NO production after 24 hrs in presence of OBHS by Griess assay; details: RAW264.7, 24 h
Mus musculus [25] = species: Mus musculus; assay: Inhibition of NFkappaB in mouse RAW 264.7 cells assessed as reduction in LPS induced NO production at 10 uM after 24 hrs in presence of OBHS by Griess assay relative to control; format: cell-based
MCF7 [26] = assay: Antiproliferative activity against human MCF7 cells after 72 hrs in presence of OBHS by MTT assay; details: MCF7, 72 h
Estrogen receptor [27] = biological target: T1, Estrogen receptor; assay: Agonist activity at human ERalpha expressed in HEK293T cells after 24 hrs by ERE-based dual luciferase reporter gene assay; format: cell-based

SMILES	pKi (Estrogen receptor [1])	pKi (Estrogen receptor beta [2])	Efficacy [3] [%]	pEC50 (Estrogen receptor beta [4])	Efficacy (Estrogen receptor beta [5]) [%]	pIC50 (Estrogen receptor [6])	Efficacy [7] [%]	Efficacy (Estrogen receptor beta [9]) [%]	pIC50 [10]	inhibition (Mus musculus [11]) [%]	pIC50 (MCF7 [19])	also measured
COc1cc(/C=C/c2ccc(OS(=O)(=O)C3CC4OC3C(c3ccc(O)cc3)=C4c3ccc(O)cc3)cc2)cc(OC)c1 (centres undefined)	7.46	7.13	9 to 23	8.40	23	8.15	48	32	6.36	95.6	5.43	pIC50 (Estrogen receptor beta [8]): 6.03; Activity (MCF7 [12]): Active; Activity (MCF7 [13]): 55%; inhibition in vivo at 25 mg/kg (MCF7 [14]): ≤ 69%; Activity (Mus musculus [15]): Non-Toxic; inhibition (Mus musculus [16]): Active; inhibition (Mus musculus [17]): Active; inhibition (Mus musculus [18]): Active; Activity (MCF7 [20]): inactive
O=S(=O)(Oc1ccccc1C(F)(F)F)C1CC2OC1C(c1ccc(/C=C/c3cc(O)cc(O)c3)cc1)=C2c1ccc(O)cc1 (centres undefined)	6.30		-24	5.54	48		3	82	4.76	38.5	4.74	
COc1cc(/C=C/c2ccc(C3=C(c4ccc(O)cc4)C4CC(S(=O)(=O)Oc5ccccc5)C3O4)cc2)cc(OC)c1 (centres undefined)	< 5.00	< 5.00	10	5.24	57		89	85	< 4.00	20.4	< 4.00	
COc1cc(/C=C/c2ccc(C3=C(c4ccc(O)cc4)C4CC(S(=O)(=O)Oc5ccc(Br)cc5)C3O4)cc2)cc(OC)c1 (centres undefined)	< 5.00	< 5.00	18		6	5.03	97	94	< 4.00	30.8	< 4.00	
O=S(=O)(Oc1ccccc1)[C@H]1C[C@@H]2O[C@@H]1C(c1ccc(O)cc1)=C2c1ccc(O)cc1 (relative stereo)									4.74	41.5	4.49	pIC50 [21]: 4.96; inhibition (Mus musculus [22]): 80.4%; pIC50 (MCF7 [23]): 4.60
CC/C(=C(\c1ccccc1)c1ccc(OCCN(C)C)cc1)c1ccccc1 [TAMOXIFEN]												Activity (MCF7 [13]): 48%; inhibition in vivo at 25 mg/kg (MCF7 [14]): 33%
Oc1ccc(/C=C/c2cc(O)cc(O)c2)cc1 [RESVERATROL]									4.88	48	4.64	pIC50 [24]: 4.96; inhibition (Mus musculus [25]): 80.4%; pIC50 (MCF7 [26]): 4.60
Cc1ccc(OS(=O)(=O)C2CC3OC2C(c2ccc(/C=C/c4cc(O)cc(O)c4)cc2)=C3c2ccc(O)cc2)cc1 (centres undefined)			77	6.11	29	8.70	1	42	4.90	42.3	5.04	pEC50 (Estrogen receptor [27]): 7.15; pIC50 (Estrogen receptor beta [8]): 7.16
